From patent publication US20250332263A1, “SURFACTANT STABILIZERS” (NOVARTIS AG, priority 2021, published 2025)
“Also recorded” adds a separate entry of the source.

Columns and labels:
Protein 5 = assay: Protein stabilization, purity by SEC-UPLC; format: physicochemical; conditions: Protein 5 formulation, 0.2% PLX188 or 0.04% PS20, PS80 or VEDS, one month at 30° C.
Method: A liquid formulation containing Protein 5 was prepared as herein described. […] (FIG. 8). A pull point was taken after this time and used for the following analysis.

[1] = Surfactant stability under pH and temperature stress in different buffers; format: physicochemical; conditions: pH 5.5 and 6.5, 50° C. for 1 month, vs frozen control (FZ)
Method: (§1) Polysorbate 20/80 suffers from chemical and enzymatic degradation mechanisms as described earlier. In order to test the amphiphilic surfactants of the disclosure for stability against oxidative and hydrolytic stress, the following forced degradation assay was performed using hydrogen peroxide and various buffers to mimic those stress conditions. The aim was to mimic chemical degradation pathways that surfactants would encounter during shelf life.
(§2) H2O2(0.25 M and 2.5 M) was added to formulations containing surfactants and subsequently incubated for 6 days at 40° C. in order to mimic oxidative stress. In addition, surfactants were added to different buffer types (e.g., histidine, citrate, phosphate and succinate buffer) and exposed to accelerated degradation stress such as temperature stress (50° C. for 1 month) at different pH (5.5 and 6.5) in order to mimic chemical degradation pathways (e.g., oxidation, hydrolysis). Control samples were frozen to avoid degradation (FZ). Chromatography methods were used to determine the surfactant content of formulations after accelerated conditions by comparing it to the amount of surfactant spiked into the buffer at the beginning of the experiment.

[2] = Quiescence stability study, oxidative and hydrolytic degradation of surfactant in Protein 2 formulation; conditions: six months at 25° C.; for surfactant content left: HPLC main peak
Method: A pull point was taken every month and a half (TO, T1.5m, T3m, T4.5m and T6m) and frozen for storage.
The surfactant content was measured for all pull points of a specific surfactant in a single series by HPLC and the analysis was performed by a standard baseline correction followed by integration of the main peak, representing the integer (not degraded) surfactant.

[3] = system: host cell proteins (HCPs) of Protein 4; assay: Enzymatic degradation of surfactant in protein 4 formulation; format: physicochemical; conditions: 0.02% PS80 or 0.04% other surfactants, one month at 5° C. or 40° C., HPLC
Excerpt: Therefore, a formulation containing protein 4 also contains the enzymes responsible for polysorbate degradations and it is a suitable proxy for testing the propensity of enzymatic degradation during shelf life in real-world conditions.

[4] = Surfactant stability under oxidative stress (H2O2); format: physicochemical; conditions: 0.25 M and 2.5 M H2O2, 6 days at 40° C., vs non-treated control
Method: as §1, §2

[5] = system: protein 1 (disordered protein); assay: Orbital shaking forced degradation, particle count by micro-flow-imaging, Protein 1; format: physicochemical; conditions: orbital shaking 250 rpm, ambient temperature, 0 h, 7 h and 24 h
Method: The API corresponding buffer was prepared with 20 mM Histidine, 220 mM Succrose pH 5.8 in water.
The aim of this experiment was to investigate the effect of amphiphilic surfactants to protect proteins from interfacial stress, such as that which is present during manufacturing, transport and application. As a proxy for this stress the forced degradation assay (orbital shaking), applying mechanical stress, was used in order to determine whether chosen surfactants stabilize three different protein API's (disordered protein, Fab, mAb) against mechanical stress (mitigating particle creation (protein aggregates)).
1.2 mL of sample was aliquoted in each 6R vial (2x). Vials of same sample were pooled after the study in order to generate enough volume for all analytical testing.
Mechanical stress was generated through orbital shaking at 250 rpm at ambient temperature for 0 h, 7 h, 24 h and 48 h using an orbital shaker. Samples were subsequently analyzed via micro-flow-imaging (MFI). Particle count >2 μm/mL was visualized by MF.

Basophile cells = assay: Basophile activation assay (B-cell activation); format: cell-based, human; conditions: compared to polysorbate and B-cell activating positive control
Method: Basophile activation assay: Human whole blood was used to purify B-cells using an in vitro B-cell activation kit (Cellonic, Basotest, Cat #10-0500). Basophile cells were incubated in 100 μL 1×wash buffer containing the final surfactant concentration as the correct dilutions were prepared beforehand. Cell labeling, lysis and fixation was performed according to manufacturer instructions and subsequently analyzed using a BD FORTESSA flow cytometer. Leucocytes are gated via forward and sideward scatter. The Basophile subpopulation was gated on CD123 and IgE staining. Finally, activated Basophile cells were identified via CD203c and CD63 gating. All fluorescently labeled antibodies were provided in the kit stated above.

protein 1 = assay: Equilibrium surface tension, pendant-drop tensiometer (protein displacement at air/water interface); format: physicochemical; conditions: surfactant in histidine buffer, absence or presence of protein 1, compared with protein 1 without surfactant; 60 min
Method: The aim of this experiment was to investigate the type of stabilization mechanism which the surfactants employ in protein-containing formulations. A Pendant-Drop Tensiometer was utilized to determine protein (API) displacement by surfactants at the air/water interface. Surfactant interface saturation mitigates the risk of interfacial stress for proteins and associated negative effects potentially impacting protein quality attributes.
The protein corresponding buffer was prepared and sterile filtered using a 0.22 μm filter unit. The surfactant in question was added into the buffer using a 5% stock solution as described earlier.
The buffer surfactant mix was aliquoted in 2 Nalgene bottles. To one of the two bottles was added the respective API in question to reach a final concentration of 1 mg/mL for protein 1 and 10 mg/mL for proteins 2 and 3.
Equilibrium surface tension was measured using the PAT-1M tensiometer (Sinterface). The system was rinsed 12 times with the sample to be measured. A hanging drop of constant volume (20 μL) was measured every second for 60 min. Drug substance samples with and without surfactants were measured at the same day to avoid operator, sample and day to day variations.

dendritic cells = assay: Dendritic cell activation; format: cell-based, human; conditions: 48 h surfactant incubation, compared to LPS activated DC and no-treatment control
Method: Dendritic cell activation: Human whole blood was used to extract monocytes using MACS (magnetic activated cell sorting) according to manufacturer's instructions (Miltenyi Biotec Order no. 130-114-980). Cells were incubated for 6 days in respective differentiation media (Miltenyi DC differentiation medium order no. 130-094-812) resulting in dendritic cells. Cells were incubated in medium with surfactants in question for 48 h and subsequently stained for cell activation using fluorescently labeled antibodies (Mouse Anti-Human CD14 PerCP-Cy5.5 order no. 562692 from BD to check monocyte negative; Mouse Anti-Human CD11c BV605 from BD to check dendritic cell differentiation and Mouse Anti-Human CD80 FITC order no. 557226 from BD to check cell activation).

Platelets = assay: Inhibition of platelet aggregation, Whole Blood Aggregometry (WBA); format: cell-based, human; conditions: 0.04% or 0.01% surfactant, 10 minutes at 37° C.; agonists AA, TRAP6, collagen, ADP
Method: Human whole blood of 6 healthy volunteers was incubated with 0.04% or 0.01% surfactants for 10 minutes at 37° C. Saline solution was used as negative control. Platelets were activated with four independent agonists: arachidonic acid (AA), thrombin receptor activator peptide (TRAP6), collagen and ADP. Aggregation was measured through Whole Blood Aggregometry (WBA).
Whole Blood Aggregometry (WBA) consists of immerging electrodes into whole blood which measure the impedance between them. The addition of a platelet agonist activates the aggregation, resulting in an increase of impedance over time. This increase can be compared between a negative control and a testing sample to derive the degree of platelet inhibition.

## Polysorbate 20 [PS20]
Protein 5
  protein purity, relative comparison between surfactants: lower purity
  sum of impurities, relative comparison between surfactants: higher impurities

## Polysorbate 80 [PS80]
[1]; citrate buffer
  surfactant content after pH and temperature stress: stable
[1]; histidine buffer
  surfactant content after pH and temperature stress: decreased content
[1]; phosphate buffer
  surfactant content after pH and temperature stress: decreased content
[1]; succinate buffer
  surfactant content after pH and temperature stress: decreased content
[2]
  surfactant content left: ~5%
[3]
  surfactant content (enzymatic degradation by HCPs): Degradation is observed both at 5 °C and 40 °C
[4]
  surfactant content after oxidative stress (H2O2): stable; also recorded: minor loss

## Vitamin E dimethyl glutarate [VEDG2.2]
[2]
  surfactant content left: 88-90%
[2]; pull points every 1.5 months
  susceptibility to chemical degradation (surfactant content over time): minimal susceptibility to chemical degradation
[5]
  particle count >2 μm/mL: perform better than TPGS-1000
[3]
  surfactant content (enzymatic degradation by HCPs): not affected by enzymatic degradation
Basophile cells
  number of activated B cells (%) upon surfactant treatment: lower level of B-cell activation than TPGS1000
Protein 1
  equilibrium surface tension / surface activity: even higher surface activity resulting in significant drop of surface tension
Dendritic cells; listed as VEDG 2.2
  mean fluorescence intensity (MFI) fold change, dendritic cell (DC) activation: perform better than TPGS1000; also recorded: no DC activation

## Vitamin E dimethyl glutarate [VEDG3.3]
Platelets
  inhibition of platelet aggregation: comparable platelet inhibition values as PS80
Dendritic cells; listed as VEDG 3.3
  mean fluorescence intensity (MFI) fold change, dendritic cell (DC) activation: perform better than TPGS1000; also recorded: no DC activation
